The values that follow come from US20050260158A1, “Human stem cell materials and methods” (priority 2003, published 2005).

Common to all, as to assay type: cell-based, human
Experiment [1] relates to MDSC cultures. As to the kind of experiment: LPS-induced macrophage differentiation of MDSC cultures. As to conditions: 1 μg/ml LPS; 12-14-day-old M-CSF-treated cultures with 80-90% MDSCs. The source says:
This transformation was verified by characterization of morphology, lipid staining, increased HLA-DR, HLA-DQ, IL-10 and TNF-α immunostaining (FIG. 3), and cytotoxicity (Table 1).

For experiment [2], the system named is MDSC cultures. Nature of the experiment: Transmission electron microscopy of treated MDSC cultures. The settings on record: treated MDSC cultures in high glucose. The protocol: Transmission electron microscopy. Untreated or treated MDSC cultures were incubated in high glucose in 8-well Permanox® Slides (Nunc, Naperville, Ill.). Freshly human isolated islets were fixed for 2 h with 2% glutaraldehyde in cacodylate buffer at room temperature and the further sample preparation was done as described in Zhu, X., et al., Proc. Natl. Acad. Sci. (USA), 99:10299-10304 (2002). Fifty randomly selected cells were photographed using the Philips CM-120 transmission electron microscope.

Experiment [3] deals with MDSC cultures. As to the kind of experiment: Pancreatic islet β-cell-like  differentiation of MDSC cultures, immunostaining for β-cell markers. As to conditions: high glucose, absence of serum. The protocol:
Cells. MDSCs cultured in 8-well Lab-Tek chamber slides (Nunc, Naperville, Ill.)) were treated for 3-5 days with 1 mg/ml LPS (Sigma) or […] CD40Ab (R&D System, Minneapolis, Minn.)) in the presence of low (5 mM) or high (25 mM) glucose (Sigma). Human pancreatic islets were digested as described in Ricordi, C., et al., Diabetes 38 Suppl 1, 140-142 (1989) and purified on COBE 2991 (Mediatech, Herndon, Va.) using a continuous Ficoll gradient. Immunostaining. Tissue slides (Biochain, Hayward, Calif.) were immunostained after deparaffinization with AutoDewaxer (Phoenix Biotechnologies, Huntsville, Ala.). The secondary antibodies were peroxidase-, FITC-, or Texas Red® dye-conjugated affiniPure anti-mouse, donkey, goat or Guinea pig antibodies (Jackson ImmunoResearch Laboratories, West Grove, Pa.). […] Isotype-matched antibodies served as controls. Human macrophages served as positive controls. […] Immunostaining for the different antigens and insulin immuno-quantification was done as previously described (Zhao, Y., et al., Proc. Natl. Acad. Sci. USA, 100: 2426-2431 (2003). Non-specific esterase staining was performed using a-Naphthyl Acetate Esterase kit (Sigma).

In the next experiment the test system is insulin gene. As to the kind of experiment: Nested RT-PCR for insulin in MDSC cultures. The settings on record: treated MDSC cultures; markedly increased in high glucose. How it is done: Nested RT-PCR. Nested RT-PCR was performed using the QIAGEN® OneStep RT-PCR kit (Qiagen, Valencia, Calif.), with the following: insulin forward-[…] (SEQ ID NO: 1) (PCR product size 324 bp), insulin forward nested-[…] (SEQ ID NO: 2) (PCR product size 266 bp), insulin reverse-[…] (SEQ ID NO: 3), glyceraldehyde phosphate dehydrogenase (GAPDH) forward-[…] (SEQ ID NO: 4) (PCR product size 541 bp), GAPDH forward nested-[…] (SEQ ID NO: 5) (PCR poduct size 282 bp), GAPDH reverse-[…] (SEQ ID NO: 6). Both PCR rounds were done using 40 cycles consisting of 30 seconds at 94° C., 1 minute at 58° C., and 1 minute at 72° C. First round PCR products were diluted 1:100 prior to the nested PCR. Final PCR products were electrophoresed through 1.7% agarose with ethidiumbromide and visualized by UV.

The test system of experiment [4] is MDSC cultures. As to the kind of experiment: Insulin release from MDSC cultures (insulin ELISA). As to conditions: MDSC cultures treated 4-5 days. How it is done:
Insulin release. MDSC cultures incubated in 24-well tissue culture plates (Costar, Cambridge, Mass.) at 70-80% confluence were treated for 4-5 days with LPS or CD40Ab. Insulin secretion was assessed as previously described in Schuit, F., et al., J. Biol. Chem. 272:18572-18579 (1997), using an insulin ELISA kit (Linco Research, MO). When required, the untreated or treated cultures were also pre-incubated for 30 min with […] diazoxide, 10 mM tolbudamide, or […] IBMX.
A general note: An ELISA detects its analyte on a solid surface through an enzyme-linked reagent.

For the substance lipopolysaccharide [LPS], the “macrophage differentiation of MDSCs” value with MDSC cultures [1] is listed as “transformed the MDSCs into standard macrophages”. Besides, the “granules seen by transmission electron microscopy” value in the experiment with MDSC cultures [2] was “many halo granules of different sizes”. The “insulin level by quantitative immunostaining” value in the experiment with MDSC cultures [3] is reported as “about half the level of islet beta-cells”. Besides, the insulin gene expression result in the experiment on insulin gene is “express the insulin gene”. For the same substance, the “insulin release by ELISA” value in the experiment on MDSC cultures [4] is listed as “glucose-dependent insulin release”.
